Tests used:
[1] = format: physicochemical
Description: The instant crystalline Form I of nicotinamide riboside chloride may be provided in one of several different morphologies. For example, the crystalline material may exist in a morphology having a bulk density of about 0.25 to about 0.4 g/mL, or may exist in a morphology having a bulk density of about 0.40 to about 0.65 g/mL. The present disclosure also relates to mixtures of at least these two morphologies in any proportion. FIG. 3A depicts a Scanning Electron Microscopy (SEM) image of the inventive crystalline nicotinamide riboside chloride in a morphology having a bulk density of about 0.25 to about 0.4 g/mL, and FIG. 3B depicts a Scanning Electron Microscopy (SEM) image of the inventive crystalline nicotinamide riboside chloride in a morphology having a bulk density of about 0.40 to about 0.65 g/mL. […] This morphology also appears to provide the product with a slightly higher purity as well. Because of the purity, stability, and color variations in the other morphology (the morphology having a bulk density of about 0.40 to about 0.65 g/mL), in at least some instances a preference exists for the crystalline nicotinamide chloride having a bulk density of about 0.25 to about 0.4 g/mL as it appears to produce higher quality product with more consistency.

[2] = Hygroscopicity / Dynamic Vapor Sorption (DVS) moisture sorption isotherm; format: physicochemical
Experimental: Moisture sorption isotherms were collected on a DVS-1 system from Surface Measurement Systems UK Ltd. (London, UK) for both crystalline Form I of nicotinamide riboside chloride and for the amorphous form of nicotinamide riboside chloride. Sample sizes were between 9.7 and 14.3 mg of solid material. The relative humidity was started with an initial drying step going from 40% RH to 0% RH. Subsequently, the relative humidity was increased to 95% (sorption), decreased to 0% RH (desorption) and increased again to 95% RH (sorption). Weight equilibration was set per step with a holding time of 1 hour (10% relative humidity step). Individual samples sizes were 12.6568 mg for crystalline Form I and 9.6799 mg for the amorphous sample. FIG. 8A provides a DVS change in mass plot for a sample of the crystalline Form I of nicotinamide riboside chloride, and FIG. 8B provides a DVS isotherm plot for a sample of the crystalline Form I of nicotinamide riboside chloride. FIG. 9A provides a DVS change in mass plot for a sample of the amorphous form of nicotinamide riboside chloride, and FIG. 9B provides a DVS isotherm plot for a sample of the amorphous form of nicotinamide riboside chloride.
FIG. 10 provides a comparison of the sorption curve for crystalline Form I of nicotinamide riboside chloride with the sorption curve for the amorphous sample. […] Even at 70% relative humidity, the weight of the crystalline sample had not increased by more than about 1.0%. These characteristics of the crystalline Form I are advantageous for the handling of the material overall and represent the ability to remain stable over a greater range of working conditions relative to the amorphous form.

[3] = high-fat diet supplemented with nicotinamide riboside; cited from earlier work

NC(=O)c1ccc[n+]([C@@H]2O[C@H](CO)[C@@H](O)[C@H]2O)c1.[Cl-]
stability to degradation via oxygen or water absorption, compared with morphology of bulk density about 0.40 to about 0.65 g/mL [1]: more stable to degradation via oxygen or water absorption

3-carbamoyl-1-[(2R,3R,4S5R)-3,4-dihydroxy-5-(hydroxymethypoxolan-2-yl]-pyrin-1-ylium chloride
rate of water absorption compared with amorphous material ([2]; 0% to 60% relative humidity, sorption curve FIG. 10): much less prone to absorption at lower relative humidities than the amorphous material | weight increase of sample (water sorption) ([2]; 70% relative humidity): ≤ 1.0% | water uptake (water vapor sorption isotherm) ([2]; relative humidity of up to 60%): not more than 0.5 wt % | water uptake (water vapor sorption isotherm) ([2]; relative humidity of up to 70%): not more than 1.0 wt %

NC(=O)c1ccc[n+]([C@@H]2O[C@H](CO)[C@@H](O)[C@H]2O)c1 [nicotinamide riboside, Nicotinamide riboside]
less weight gained than mice on same high-fat diet without nicotinamide riboside [3]: 60%

From patent publication US10233207B2, “Crystalline form of nicotinamide riboside” (W. R. Grace & Co.—Conn., priority 2014, dated 2019)
